{"source": "the supplement of paper PMC10307832", "assay_in_all_cases": "relative viability (nuclei count vs DMSO), 5 days (fraction); higher = more cells survive", "key": {"RAF265 + Tozasertib": {"compound": "Cn1c(Nc2ccc(C(F)(F)F)cc2)nc2cc(Oc3ccnc(-c4ncc(C(F)(F)F)[nH]4)c3)ccc21 [RAF265] + Cc1cc(Nc2cc(N3CCN(C)CC3)nc(Sc3ccc(NC(=O)C4CC4)cc3)n2)n[nH]1 [Tozasertib] (partner 0.1 µM)", "method_in_brief": "(§1)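 Lung cancer cell lines, seeded in 1536-well plates, were treated the following day by pin tool with a single drug or with five library-drug doses (not always all listed) in √10 steps on top of a fixed anchor-drug dose. Cells were fixed and nuclei stained in one step after 5 days, and nuclei were counted. Relative viability is the nuclei count for treated wells divided by that for vehicle wells, reported as medians of duplicate plates.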"}, "IPA-3 + Pictilisib": {"compound": "C1=CC=C2C(=C1)C=CC(=C2SSC3=C(C=CC4=CC=CC=C43)O)O [IPA-3] + CS(=O)(=O)N1CCN(Cc2cc3nc(-c4cccc5[nH]ncc45)nc(N4CCOCC4)c3s2)CC1 [Pictilisib] (partner 1 µM)", "method_in_brief": "as §1"}, "Doramapimod + Trametinib": {"compound": "Cc1ccc(-n2nc(C(C)(C)C)cc2NC(=O)Nc2ccc(OCCN3CCOCC3)c3ccccc23)cc1 [Doramapimod] + CC(=O)Nc1cccc(-n2c(=O)n(C3CC3)c(=O)c3c(Nc4ccc(I)cc4F)n(C)c(=O)c(C)c32)c1 [Trametinib] (partner 0.02 µM)", "method_in_brief": "as §1"}, "Doramapimod + Pictilisib": {"compound": "Cc1ccc(-n2nc(C(C)(C)C)cc2NC(=O)Nc2ccc(OCCN3CCOCC3)c3ccccc23)cc1 [Doramapimod] + CS(=O)(=O)N1CCN(Cc2cc3nc(-c4cccc5[nH]ncc45)nc(N4CCOCC4)c3s2)CC1 [Pictilisib] (partner 1 µM)", "method_in_brief": "as §1"}}}
{"cell line": "UMC-11", "values": [{"measurement": "relative viability", "setting": "RAF265 + Tozasertib; first compound 0.01 µM", "value": 0.191}, {"measurement": "relative viability", "setting": "RAF265 + Tozasertib; first compound 0.03162 µM", "value": 0.212}, {"measurement": "relative viability", "setting": "RAF265 + Tozasertib; first compound 0.1 µM", "value": 0.201}, {"measurement": "relative viability", "setting": "RAF265 + Tozasertib; first compound 0.3162 µM", "value": 0.19}, {"measurement": "relative viability", "setting": "RAF265 + Tozasertib; first compound 1 µM", "value": 0.174}, {"measurement": "relative viability", "setting": "IPA-3 + Pictilisib; first compound 0.2 µM", "value": 0.982}, {"measurement": "relative viability", "setting": "IPA-3 + Pictilisib; first compound 0.6325 µM", "value": 0.815}, {"measurement": "relative viability", "setting": "IPA-3 + Pictilisib; first compound 2 µM", "value": 0.776}, {"measurement": "relative viability", "setting": "IPA-3 + Pictilisib; first compound 6.325 µM", "value": 0.665}, {"measurement": "relative viability", "setting": "IPA-3 + Pictilisib; first compound 20 µM", "value": 0.763}, {"measurement": "relative viability", "setting": "Doramapimod + Trametinib; first compound 0.02 µM", "value": 0.689}, {"measurement": "relative viability", "setting": "Doramapimod + Trametinib; first compound 0.06325 µM", "value": 0.638}, {"measurement": "relative viability", "setting": "Doramapimod + Trametinib; first compound 0.2 µM", "value": 0.621}, {"measurement": "relative viability", "setting": "Doramapimod + Trametinib; first compound 0.6325 µM", "value": 0.463}, {"measurement": "relative viability", "setting": "Doramapimod + Trametinib; first compound 2 µM", "value": 0.539}, {"measurement": "relative viability", "setting": "Doramapimod + Pictilisib; first compound 0.02 µM", "value": 0.726}, {"measurement": "relative viability", "setting": "Doramapimod + Pictilisib; first compound 0.06325 µM", "value": 0.759}, {"measurement": "relative viability", "setting": "Doramapimod + Pictilisib; first compound 0.2 µM", "value": 0.726}, {"measurement": "relative viability", "setting": "Doramapimod + Pictilisib; first compound 0.6325 µM", "value": 0.547}, {"measurement": "relative viability", "setting": "Doramapimod + Pictilisib; first compound 2 µM", "value": 0.615}]}
